Data reported in patent US20260309717A1, “PROXIMITY INDUCING SYSTEM AND USES THEREOF” (SORBONNE UNIVERSITE, priority 2022, published 2026).

How the values were obtained:
Format in all cases: cell-based
[1] = biological target: T1, mCherry-^FIREtag / ^FIREmate-ECFP-Giantin (Halorhodospira halophila, UniProt P16113, A30V/C69G/D97P/F96I, form not given/G21E/G25R/K17N/M100R/M109L/Q41L/Q99S/S72T/T101G/V83A/Y94W/Y98T); test: Induction of proximity with a non-fluorogenic chromophore, HeLa cells; conditions: 10 μM
T1 construct: FIREmate-ECFP-Giantin(3131-3259) and mCherry-FIREtag in HeLa cells
T1 sequence (P16113 1-114 A30V/C69G/D97P/F96I/G21E/G25R/K17N/M100R/M109L/Q41L/Q99S/S72T/T101G/V83A/Y94W/Y98T): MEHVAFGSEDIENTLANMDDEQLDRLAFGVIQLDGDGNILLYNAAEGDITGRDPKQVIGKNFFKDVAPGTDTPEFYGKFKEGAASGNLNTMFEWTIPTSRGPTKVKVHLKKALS
Procedure: HeLa cells co-expressing mCherry-^FIREtag and ^FIREmate-ECFP-Giantin were treated with 10 μM HBR-2,5DM (match1), washed with HBR-2,5DM-free medium and then treated with 10 μM HBIR-3M. Cells were imaged by time-lapse spinning-disk confocal microscopy. FIGS. 9A-D are sets of representative confocal micrographs of untreated cells (9A), cells after addition of HBR-2,5DM (match1) (9B), cells after washout of HBR-2,5DM (match1) (9C), and cells after addition of HBIR-3M (9D). (mCherry: ex/em 561/606-675 nm; FIRE: ex/em 488/508-570 nm). Scale bars are 10 μm.
Next, experiments were carried out to investigate whether other chromophores could act as molecular inducer of proximity and provide new properties. In particular, non-fluorogenic chromophores, such as HBIR-3M, were investigated. […] The fusion proteins mCherry-^FIREtag (red fluorescence) and ^FIREmate-ECFP-Giantin (blue fluorescence) were co-expressed in HeLa cells as described above.

[2] = biological target: T2, ^FIREmate and ^FIREtag (fused to FRB and FKBP) (Halorhodospira halophila, UniProt P16113, A30V/C69G/D97P/F96I, form not given/G21E/G25R/K17N/M100R/M109L/Q41L/Q99S/S72T/T101G/V83A/Y94W/Y98T); test: Flow cytometry of fluorescent ternary assembly formation in HEK293T cells co-expressing FKBP-^FIREtag and FRB-^FIREmate
T2 sequence (P16113 1-114 A30V/C69G/D97P/F96I/G21E/G25R/K17N/M100R/M109L/Q41L/Q99S/S72T/T101G/V83A/Y94W/Y98T): T1 sequence (P16113 1-114 A30V/C69G/D97P/F96I/G21E/G25R/K17N/M100R/M109L/Q41L/Q99S/S72T/T101G/V83A/Y94W/Y98T)
Procedure: FIGS. 2A and 2B are graphs illustrating the fluorogen-dependent interaction between the two polypeptides ^FIREmate and ^FIREtag. The graphs show the normalized average fluorescence detected from about 50,000 HEK293T cells co-expressing the FK506-binding protein (FKBP) fused to ^FIREtag and the FKBP-rapamycin-binding domain of mammalian target of rapamycin (FRB) fused to ^FIREmate treated without (triangles) or with (squares) 500 nM of rapamycin, and with 1, 5, 10, 25 or 50 μM of HBR-2,5DM (2A) or HMBR (2B). Data represent the mean values±SD of three independent experiments.
The formation of a fluorescent ternary assembly was assessed by flow cytometry in HEK293 cells expressing ^FIREmate and ^FIREtag fused to the C-termini of FKBP (FK506-binding protein) and FRB (FKBP-rapamycin-binding domain of mammalian target of rapamycin), […]. FKBP and FRB are able to dimerize upon addition of rapamycin. Treatment of the HEK293 cells with rapamycin is thus expected to induce the dimerization of FKBP and FRB, and subsequently to induce proximity between ^FIREtag and ^FIREmate.

[3] = biological target: T1, mCherry-^FIREtag / ^FIREmate-ECFP-Giantin; test: Recruitment of cytoplasmic protein to the Golgi apparatus, HeLa cells; conditions: 10 μM
Procedure: FIGS. 6A-E illustrate the recruitment of cytoplasmic proteins to the Golgi apparatus with the proximity inducing system described herein. FIG. 6A is a representation of the experimental design wherein HeLa cells co-expressing mCherry-^FIREtag and ^FIREmate-ECFP-Giantin were treated with 10 µM of match (either HBR-2,5DM or HMBR), and imaged by time-lapse confocal microscopy. FIGS. 6B-C are graphs showing the temporal evolution of the FIRE signal detected upon addition at 0 min of HBR-2,5DM (match1-6B) or HMBR (match2-6C). Data represents the mean values±SD of 10 cells from n=3 independent experiments (6B, D), or of 12 cells from n=3 independent experiments (6C, E). FIGS. 6D-E are sets of representative confocal micrographs of cells before (0 min) and after (5 min) addition of HBR-2,5DM (match1-6D) or HMBR (match2-6E) (mCherry: ex/em 561/606-675 nm; FIRE: ex/em 488/508-570 nm; ECFP: ex/em 445/455-499 nm). […] Scale bars are 20 μm.
(§1) The confocal micrographs were acquired on a Zeiss LSM 980 Laser Scanning Microscope equipped with a plan apochromat 63x/1.4 NA oil immersion objective. ZEN software was used to collect the data. The images were analyzed using Icy (2.4.0.0) and Fiji (Image J). In short, to track fluorescence signal in a specific organelle, a ROI (region of interest) was determined by masking the signal in the ECFP (Enhanced Cyan Fluorescent Protein) channel with the plug-in HK-means with the following parameters: intensity class equals 100, minimum object size (pixels or px) equals 500, maximum object size (px) equals 1500-3000. The signal intensity of the ROI was tracked over time for each channel by using plug-in Active Contours. The background signal was subtracted. Data were processed using GraphPad Prism v9.3.0.
(§2) To further evaluate the scope of the proximity inducing system described herein and show its versatility, ^FIREmate was anchored at the membrane of various organelles or cellular structures so that ^FIREmate faced the cytosol. ^FIREmate was thus fused: • to the N-terminus of the transmembrane domain (amino acid residues at positions 3131-3259) of Giantin for location at the cis-medial rims of the Golgi apparatus (FIG. 6A), • to the N-terminus of the transmembrane domain (amino acid residues at positions 100-134) of the cytochrome b5 (Cb5) for location at the endoplasmic reticulum membrane (FIG. 7A), and • to the C-terminus of the Lyn11 inner membrane targeting sequence for location at the plasma membrane (FIG. 8A).
(§3) For each construct, an ECFP was inserted between ^FIREmate and the other protein domain/sequence to monitor the localization of the resulting fusion protein (blue fluorescence). Each fusion protein was co-expressed in mammalian cells (HeLa cells or HEK293 cells as indicated) together with mCherry-^FIREtag (red fluorescence). […]

[4] = biological target: T3, mCherry-^FIREtag / ^FIREmate-ECFP-Cb5 (Halorhodospira halophila, UniProt P16113, A30V/C69G/D97P/F96I, form not given/G21E/G25R/K17N/M100R/M109L/Q41L/Q99S/S72T/T101G/V83A/Y94W/Y98T); test: Recruitment of cytoplasmic protein to the endoplasmic reticulum, HeLa cells; conditions: 10 μM
T3 construct: FIREmate-ECFP-Cb5(100-134) and mCherry-FIREtag in HeLa cells
T3 sequence (P16113 1-114 A30V/C69G/D97P/F96I/G21E/G25R/K17N/M100R/M109L/Q41L/Q99S/S72T/T101G/V83A/Y94W/Y98T): T1 sequence (P16113 1-114 A30V/C69G/D97P/F96I/G21E/G25R/K17N/M100R/M109L/Q41L/Q99S/S72T/T101G/V83A/Y94W/Y98T)
Procedure: FIGS. 7A-E illustrate the recruitment of cytoplasmic proteins to the endoplasmic reticulum with the proximity inducing system described herein. FIG. 7A is a representation of the experimental design wherein HeLa cells co-expressing mCherry-^FIREtag and ^FIREmate-ECFP-Cb5 were treated with 10 μM of match (either HBR-2,5DM or HMBR), and imaged by time-lapse confocal microscopy. FIGS. 7B-C are graphs showing the temporal evolution of the FIRE signal detected upon addition at 0 min of HBR-2,5DM (match1-7C) or HMBR (match2-7D). Data represents the mean values±SD of 17 cells from n=3 independent experiments (7B, D), or of 18 cells from n=3 independent experiments (7C, E). FIGS. 7D-E are sets of representative confocal micrographs of cells before (0 min) and after (5 min) addition of HBR-2,5DM (match1-7D) or HMBR (match2-7E) (mCherry: ex/em 561/606-675 nm; FIRE: ex/em 488/508-570 nm; ECFP: ex/em 445/455-499 nm). […] Scale bars are 20 μm.
as §1, §2, §3

[5] = biological target: T4, mCherry-^FIREtag / Lyn11-ECFP-^FIREmate (Halorhodospira halophila, UniProt P16113, A30V/C69G/D97P/F96I, form not given/G21E/G25R/K17N/M100R/M109L/Q41L/Q99S/S72T/T101G/V83A/Y94W/Y98T); test: Recruitment of cytoplasmic protein to the plasma membrane, HEK293 cells; conditions: 10 μM
T4 construct: Lyn11-ECFP-FIREmate and mCherry-FIREtag in HEK293 cells
T4 sequence (P16113 1-114 A30V/C69G/D97P/F96I/G21E/G25R/K17N/M100R/M109L/Q41L/Q99S/S72T/T101G/V83A/Y94W/Y98T): T1 sequence (P16113 1-114 A30V/C69G/D97P/F96I/G21E/G25R/K17N/M100R/M109L/Q41L/Q99S/S72T/T101G/V83A/Y94W/Y98T)
Procedure: FIGS. 8A-E illustrate the recruitment of cytoplasmic proteins to the plasma membrane with the proximity inducing system described herein. FIG. 8A is a representation of the experimental design wherein HEK293 cells co-expressing mCherry-^FIREtag and Lyn11-ECFP-^FIREmate were treated with 10 μM of match (either HBR-2,5DM or HMBR), and imaged by time-lapse confocal microscopy. FIGS. 8B-C are graphs showing the temporal evolution of the FIRE signal detected upon addition at 0 min of HBR-2,5DM (match1-8B) or HMBR (match2-8C). Data represents the mean values±SD of 22 cells from n=3 independent experiments (8B, D), or of 30 cells from n=3 independent experiments (8C, E). FIGS. 8D-E are sets of representative confocal micrographs of cells before (0 min) and after (5 min) addition of HBR-2,5DM (match1-8D) or HMBR (match2-8E) (mCherry: ex/em 561/606-675 nm; FIRE: ex/em 488/508-570 nm; ECFP: ex/em 445/455-499 nm). […] Scale bars are 20 μm.
as §1, §2, §3

[6] = tested on: mCherry-FKBP-^FIREtag / TOM20-^FIREmate / FRB-ECFP-Giantin; test: Orthogonality with FRB-FKBP-rapamycin CIP system, confocal microscopy, HeLa cells; conditions: simultaneous addition of 10 μM HBR-2,5DM and 500 nM rapamycin
Procedure: FIG. 12A is a representation of the experimental design wherein HeLa cells co-expressing mCherry-FKBP-^FIREtag, TOM20-^FIREmate and FRB-ECFP-Giantin were treated with 10 μM of match (i.e., HBR-2,5DM) and 500 nM rapamycin, and imaged by time-lapse confocal microscopy. FIG. 12B is a set of representative confocal micrographs of cells before and after addition of HBR-2,5DM (match1) and rapamycin (rap) (mCherry: ex/em 561/606-675 nm; FIRE: ex/em 488/508-570 nm; ECFP: ex/em 445/455-499 nm). Scale bars are 20 μm.
as §1, with “v9.3.0. […]” for “v9.3.0.”

Q: Which results are given for `Cc1cc(/C=C2\SC(=O)NC2=S)ccc1O` [HBIR-3M, (Z)-5-(4-hydroxy-3-methylbenzylidene)-4-thioxo-1,3-thiazolidin-2-one]?
A: assembly with ^FIREtag and ^FIREmate (tightness, fluorescence) [1]: very tight non-fluorescent ‘invisible’ assembly; induction of proximity relative to HBR-2,5DM ([1]; cycles of sequential addition and removal): as efficiently as HBR-2,5DM

Q: Which “dimerization of FKBP and FRB (induced proximity)” value ([2]; absence of rapamycin) does the source give for `Cc1cc(/C=C2\SC(=S)NC2=O)ccc1O` [HMBR, (Z)-5-(4-hydroxy-3-methylbenzylidene)-2-thioxo-1,3-thiazolidin-4-one] here?
A: able to induce the dimerization of FKBP and FRB

Q: And the “formation of a ternary fluorescent assembly” value ([2]; fluorogen 1, 5, 10, 25 or 50 μM, HEK293 cells)?
A: induced the formation of a ternary fluorescent assembly at all tested fluorogen concentrations

Q: What about the “dependence of ternary fluorescent assembly formation on rapamycin (initial proximity)” value ([2]; with or without 500 nM rapamycin, fluorogen 1-50 μM) of the same molecule?
A: regardless of the presence or absence of rapamycin

Q: What about the “FIRE signal at the Golgi apparatus” value [3] of the same molecule?
A: simultaneous appearance of green fluorescence

Q: And the “translocation of mCherry-^FIREtag to the Golgi apparatus” value [3]?
A: rapid translocation of mCherry-^FIREtag to the organelle

Q: What about the “FIRE signal at the endoplasmic reticulum” value [4] of the same molecule?
A: simultaneous appearance of green fluorescence

Q: What about the “translocation of mCherry-^FIREtag to the endoplasmic reticulum” value [4] of the same molecule?
A: rapid translocation of mCherry-^FIREtag to the organelle

Q: And the “FIRE signal at the plasma membrane” value [5]?
A: simultaneous appearance of green fluorescence

Q: What about the “translocation of mCherry-^FIREtag to the plasma membrane” value [5] of the same molecule?
A: rapid translocation of mCherry-^FIREtag to the organelle

Q: `CO[C@H]1C[C@@H]2CC[C@@H](C)[C@@](O)(O2)C(=O)C(=O)N2CCCC[C@H]2C(=O)O[C@H]([C@H](C)C[C@@H]2CC[C@@H](O)[C@H](OC)C2)CC(=O)[C@H](C)/C=C(\C)[C@@H](O)[C@@H](OC)C(=O)[C@H](C)C[C@H](C)/C=C/C=C/C=C/1C` [rapamycin, reference compound] was tested. Which “translocation of mCherry-FKBP-^FIREtag” value [6] did it give?
A: triggered the translocation of mCherry-FKBP-^FIREtag to the Golgi apparatus and to the mitochondria
